Data reported in patent US10442835B2, “Water-soluble rapamycin derivatives” (Zhejiang Hisun Pharmaceutical Co., Ltd., priority 2016, dated 2019).
Each block holds one molecule with its values, some of them ahead of it.

Key:
[1] = Body weight of OS-RC-2 tumor nude mice
Protocol: The experiment was terminated and tumors were stripped and weighted. The tumor inhibition rate was calculated.
The body weight can indirectly reflect the toxicity of the drugs.

[2] = Drug release in serum by prodrugs; assay type: in vitro ADME, rat; conditions: 37° C.; HPLC at 10 min to 4 h
Protocol: The effects of the compounds according to the present invention as prodrugs of rapamycin can be confirmed by standard operational procedures of pharmacological experiments.
10 mL ZnCl2 solution with a concentration of 0.10 mol/L was prepared for use.
1.5 mL blood from ophthalmic artery of rats was injected into a 1.5 mL centrifuge tube and was centrifuged at 12000 rad/min for 10 min. 300 μl supernate (serum) was pipetted into a 1.5 mL centrifuge tube. 7 samples of the serum were prepared for use with the same method.
As a blank control, 100 μl water was added to centrifuge tube No. 7. Then the tubes were incubated at 37° C. in an incubator.
300 μl acetonitrile and 300 μl ZnCl2 solution of 0.1 mol/L were added to each of centrifuge tubes No. 1-6 at 10 min, 0.5 h, 1 h, 2 h, 3 h, and 4 h, respectively. The tubes were vortexed homogeneously for 5 min, so as to end the action of the enzyme in the serum on the compounds. 300 μl acetonitrile and 300 μl ZnCl2 solution of 0.1 M were added to the centrifuge tube No. 7 at 4 h, which was then vortexed homogeneously for 5 min.
Each of the centrifuge tubes No. 1-7 was centrifuged at 12000 rad/min for 15 min. The protein in the serum was removed via centrifuging.

[3] = In vivo pharmacokinetic study in rats; parameters: species or system SD rats
Protocol: To further study the in vivo pharmacokinetic characteristics of compound I-1 in rats, compound I-1 was administrated to SD rats via intravenous injection. The in vivo pharmacokinetic characteristics and bioavailability of everolimus released in rats were measured, and compared with the pharmacokinetic characteristics of everolimus via oral administration.
Then the animals were observed when blood was sampled every time until the last sample was collected.

[4] = Test for solubility in water; assay type: physicochemical; conditions: water, thermodynamic from solid
Protocol: The experiments herein can measure the dissolution profile in water of the compounds according to the present invention.
To a 25 ml volumetric flask, 25 mg everolimus was added, and diluted with acetonitrile to volume. The mixture was shaken till all the solid dissolved, obtaining 1 mg/mL everolimus solution in acetonitrile.
1 mg/mL everolimus solution in acetonitrile was added to a 10 ml volumetric flask, and was diluted with acetonitrile by 2 times, 10 times, 100 times and 1000 times, so as to obtain everolimus solutions in acetonitrile with a concentration of 0.5 mg/mL, 0.1 mg/mL, 0.01 mg/mL and 0.001 mg/mL, respectively.
Each of the three mixtures was shaken till the solid in the volumetric flask stopped to dissolve. Before analyzed by HPLC, 1 mL of each solution was filtrated via a 0.22 μm filter. The solubility of the compounds was calculated from the standard curve using the peak area of the main peak obtained.
Based on the same study method, comparisons of the solubility between sirolimus/temsirolimus and the compounds modified by glutathione are carried out, respectively.

[5] = Day 5, G4 compound I-1 8.12 mg/kg ig 3×/qw
[6] = Day 5, G5 compound I-1 2.0 mg/kg iv 3×/qw
[7] = Day 5, G6 compound I-1 8.12 mg/kg iv 3×/qw
[8] = Day 5, G7 compound I-1 32.7 mg/kg iv 1×/qw
[9] = Day 8, G4 compound I-1 8.12 mg/kg ig 3×/qw
[10] = Day 8, G5 compound I-1 2.0 mg/kg iv 3×/qw
[11] = Day 8, G6 compound I-1 8.12 mg/kg iv 3×/qw
[12] = Day 8, G7 compound I-1 32.7 mg/kg iv 1×/qw
[13] = Day 12, G4 compound I-1 8.12 mg/kg ig 3×/qw
[14] = Day 12, G5 compound I-1 2.0 mg/kg iv 3×/qw
[15] = Day 12, G6 compound I-1 8.12 mg/kg iv 3×/qw
[16] = Day 12, G7 compound I-1 32.7 mg/kg iv 1×/qw
[17] = Day 15, G4 compound I-1 8.12 mg/kg ig 3×/qw
[18] = Day 15, G5 compound I-1 2.0 mg/kg iv 3×/qw
[19] = Day 15, G6 compound I-1 8.12 mg/kg iv 3×/qw
[20] = Day 15, G7 compound I-1 32.7 mg/kg iv 1×/qw
[21] = Day 19, G4 compound I-1 8.12 mg/kg ig 3×/qw
[22] = Day 19, G5 compound I-1 2.0 mg/kg iv 3×/qw
[23] = Day 19, G6 compound I-1 8.12 mg/kg iv 3×/qw
[24] = Day 19, G7 compound I-1 32.7 mg/kg iv 1×/qw
[25] = Day 22, G4 compound I-1 8.12 mg/kg ig 3×/qw
[26] = Day 22, G5 compound I-1 2.0 mg/kg iv 3×/qw
[27] = Day 22, G6 compound I-1 8.12 mg/kg iv 3×/qw
[28] = Day 22, G7 compound I-1 32.7 mg/kg iv 1×/qw
[29] = Day 26, G4 compound I-1 8.12 mg/kg ig 3×/qw
[30] = Day 26, G5 compound I-1 2.0 mg/kg iv 3×/qw
[31] = Day 26, G6 compound I-1 8.12 mg/kg iv 3×/qw
[32] = Day 26, G7 compound I-1 32.7 mg/kg iv 1×/qw
[33] = Day 29, G4 compound I-1 8.12 mg/kg ig 3×/qw
[34] = Day 29, G5 compound I-1 2.0 mg/kg iv 3×/qw
[35] = Day 29, G6 compound I-1 8.12 mg/kg iv 3×/qw
[36] = Day 29, G7 compound I-1 32.7 mg/kg iv 1×/qw
[37] = Day 32, G4 compound I-1 8.12 mg/kg ig 3×/qw
[38] = Day 32, G5 compound I-1 2.0 mg/kg iv 3×/qw
[39] = Day 32, G6 compound I-1 8.12 mg/kg iv 3×/qw
[40] = Day 32, G7 compound I-1 32.7 mg/kg iv 1×/qw
[41] = Sprague-Dawley (SD), rat, everolimus in plasma, everolimus PO 10 mg/kg, male SD rats

SMILES: CO[C@H]1C[C@@H]2CC[C@@H](C)[C@@](O)(O2)C(=O)C(=O)N2CCCC[C@H]2C(=O)OC([C@H](C)C[C@@H]2CC[C@@H](OCCOC(=O)CSC[C@H](NC(=O)CC[C@H](N)C(=O)O)C(=O)NCC(=O)O)[C@H](OC)C2)CC(=O)[C@H](C)/C=C(\C)[C@@H](O)[C@@H](OC)C(=O)[C@H](C)C[C@@H](C)\C=C/C=C/C=C/1C (some centres unmarked) [Compound I-1]
Body Weight, mean value ([1]; Day 1, G4 compound I-1 8.12 mg/kg ig 3×/qw): 21.04 g
Body Weight, mean value ([1]; Day 1, G5 compound I-1 2.0 mg/kg iv 3×/qw): 20.67 g
Body Weight, mean value ([1]; Day 1, G6 compound I-1 8.12 mg/kg iv 3×/qw): 21.39 g
Body Weight, mean value ([1]; Day 1, G7 compound I-1 32.7 mg/kg iv 1×/qw): 21.28 g
Body Weight, mean value [1, 5]: 20.27 g
Decrease rate of body weight [1, 5]: 3.7%
Body Weight, mean value [1, 6]: 19.27 g
Decrease rate of body weight [1, 6]: 6.8%
Body Weight, mean value [1, 7]: 20.46 g
Decrease rate of body weight [1, 7]: 4.4%
Body Weight, mean value [1, 8]: 19.97 g
Decrease rate of body weight [1, 8]: 6.2%
Body Weight, mean value [1, 9]: 20.04 g
Decrease rate of body weight [1, 9]: 4.8%
Body Weight, mean value [1, 10]: 18.76 g
Decrease rate of body weight [1, 10]: 9.2%
Body Weight, mean value [1, 11]: 21.16 g
Decrease rate of body weight [1, 11]: 1.1%
Body Weight, mean value [1, 12]: 20.14 g
Decrease rate of body weight [1, 12]: 5.3%
Body Weight, mean value [1, 13]: 19.62 g
Decrease rate of body weight [1, 13]: 6.7%
Body Weight, mean value [1, 14]: 18.71 g
Decrease rate of body weight [1, 14]: 9.5%
Body Weight, mean value [1, 15]: 21.25 g
Decrease rate of body weight [1, 15]: 0.7%
Body Weight, mean value [1, 16]: 19.93 g
Decrease rate of body weight [1, 16]: 6.3%
Body Weight, mean value [1, 17]: 19.29 g
Decrease rate of body weight [1, 17]: 8.3%
Body Weight, mean value [1, 18]: 18.18 g
Decrease rate of body weight [1, 18]: 12.0%
Body Weight, mean value [1, 19]: 20.71 g
Decrease rate of body weight [1, 19]: 3.2%
Body Weight, mean value [1, 20]: 19.38 g
Decrease rate of body weight [1, 20]: 8.9%
Body Weight, mean value [1, 21]: 19.19 g
Decrease rate of body weight [1, 21]: 8.8%
Body Weight, mean value [1, 22]: 18.30 g
Decrease rate of body weight [1, 22]: 11.5%
Body Weight, mean value [1, 23]: 19.67 g
Decrease rate of body weight [1, 23]: 8.0%
Body Weight, mean value [1, 24]: 19.12 g
Decrease rate of body weight [1, 24]: 10.2%
Body Weight, mean value [1, 25]: 19.19 g
Decrease rate of body weight [1, 25]: 8.8%
Body Weight, mean value [1, 26]: 18.30 g
Decrease rate of body weight [1, 26]: 11.5%
Body Weight, mean value [1, 27]: 19.67 g
Decrease rate of body weight [1, 27]: 8.0%
Body Weight, mean value [1, 28]: 19.12 g
Decrease rate of body weight [1, 28]: 10.2%
Body Weight, mean value [1, 29]: 19.65 g
Decrease rate of body weight [1, 29]: 6.6%
Body Weight, mean value [1, 30]: 17.95 g
Decrease rate of body weight [1, 30]: 13.1%
Body Weight, mean value [1, 31]: 19.31 g
Decrease rate of body weight [1, 31]: 9.7%
Body Weight, mean value [1, 32]: 19.12 g
Decrease rate of body weight [1, 32]: 10.2%
Body Weight, mean value [1, 33]: 20.02 g
Decrease rate of body weight [1, 33]: 4.8%
Body Weight, mean value [1, 34]: 18.29 g
Decrease rate of body weight [1, 34]: 11.5%
Body Weight, mean value [1, 35]: 19.04 g
Decrease rate of body weight [1, 35]: 10.5%
Body Weight, mean value [1, 36]: 19.04 g
Decrease rate of body weight [1, 36]: 10.5%
Body Weight, mean value [1, 37]: 19.87 g
Decrease rate of body weight [1, 37]: 5.6%
Body Weight, mean value [1, 38]: 18.12 g
Decrease rate of body weight [1, 38]: 12.3%
Body Weight, mean value [1, 39]: 18.80 g
Decrease rate of body weight [1, 39]: 11.7%
Body Weight, mean value [1, 40]: 18.94 g
Decrease rate of body weight [1, 40]: 10.7%
stability after dissolving in normal saline: the resulted solution is stable
release of everolimus in rat's serum [2]: slowly release everolimus

concentration at 3 h ([3]; Sprague-Dawley (SD), rat, plasma, 3 h, oral administration of everolimus 10.000 mg/kg, male SD rats): 64.3 ng/mL
concentration at 4 h ([3]; Sprague-Dawley (SD), rat, plasma, 4 h, oral administration of everolimus 10.000 mg/kg, male SD rats): 61.4 ng/mL
concentration at 6 h ([3]; Sprague-Dawley (SD), rat, plasma, 6 h, oral administration of everolimus 10.000 mg/kg, male SD rats): 32.3 ng/mL
AUC(0-inf) [3, 41]: 454 ng·h/mL
AUC(0-t) [3, 41]: 454 ng·h/mL
Cmax [3, 41]: 126 ng/mL
Tmax [3, 41]: 1.91 h
half-life [3, 41]: 2.2 h
MRT ([3]; Sprague-Dawley (SD), rat, everolimus in plasma, everolimus PO 10 mg/kg, male SD rats, read-out: MRT (mean residence time)): 3.17 h
AUC Extr ([3]; everolimus in plasma, everolimus PO 10 mg/kg, male SD rats): 6.90%
concentration at 0 h ([3]; rat, plasma, 0 h, oral administration of everolimus 10.000 mg/kg, male SD rats): 0 ng/mL
concentration at 0.25 h ([3]; rat, plasma, 0.25 h, oral administration of everolimus 10.000 mg/kg, male SD rats): 17.3 ng/mL
concentration at 0.5 h ([3]; rat, plasma, 0.5 h, oral administration of everolimus 10.000 mg/kg, male SD rats): 99.9 ng/mL
concentration at 1 h ([3]; rat, plasma, 1 h, oral administration of everolimus 10.000 mg/kg, male SD rats): 99.1 ng/mL
concentration at 1.5 h ([3]; rat, plasma, 1.5 h, oral administration of everolimus 10.000 mg/kg, male SD rats): 90.4 ng/mL
concentration at 2 h ([3]; rat, plasma, 2 h, oral administration of everolimus 10.000 mg/kg, male SD rats): 69.7 ng/mL
concentration at 8 h ([3]; rat, plasma, 8 h, oral administration of everolimus 10.000 mg/kg, male SD rats): 16.3 ng/mL
concentration at 24 h ([3]; rat, plasma, 24 h, oral administration of everolimus 10.000 mg/kg, male SD rats): 2.2 ng/mL
area under the curve (AUC) of plasma concentration of everolimus vs. time ([3]; rats orally administrated with everolimus 10 mg/Kg): about 450
solubility [4]: < 1 µg/mL
SMILES: CO[C@H]1C[C@@H]2CC[C@@H](C)[C@@](O)(O2)C(=O)C(=O)N2CCCC[C@H]2C(=O)O[C@H]([C@H](C)C[C@@H]2CC[C@@H](OCCO)[C@H](OC)C2)CC(=O)[C@H](C)/C=C(\C)[C@@H](O)[C@@H](OC)C(=O)[C@H](C)C[C@H](C)/C=C/C=C/C=C/1C [Everolimus, reference compound]
